# pEC50: −log10 of the molar value.
# Tests used:
# HT-1080 cells [1] = test: Analysis of lipid ROS generation (C11-BODIPY 581/591 flow cytometry); type: cell-based; details: HT-1080; 6 h; with or without deferoxamine
# Method: Cells were treated with test compounds, trypsinized, pelleted, and washed once with PBS. For lipophilic or aqueous ROS detection, cells were re-suspended in Hanks' Balanced Salt Solution (HBSS; […] Cells were then pelleted, re-suspended in 500 μL HBSS, strained through a 40-μm cell strainer (BD Falcon), and analyzed using a BD Accuri C6 flow cytometer (BD Biosciences). Both dyes were measured in the FL1 channel. Experiments were done in biological triplicates.
# BJeLR = test: Modulatory profiling: Alamar Blue viability, lethal compound cotreated with death modulator (EC50, AUC); type: cell-based, human; design: AUC, modulator BJ.Gd3+ / AUC, modulator BJ.LNAME / AUC, modulator BJ.Lmin / AUC, modulator BJ.3MA / AUC, modulator BJ.ALLN / AUC, modulator BJ.Boc D / AUC, modulator BJ.CHX / AUC, modulator BJ.Co2+ / AUC, modulator BJ.Nec-1 / AUC, modulator BJ.Pepstatin / AUC, modulator BJ.TLCK / AUC, modulator BJ.atoc / AUC, modulator BJ.trolox / AUC, modulator BJ.zVAD: unit not given beside the values; details: for pEC50: Homo sapiens, BJeLR, 48 h
# HT-1080 = test: as above; type: cell-based; design: AUC, modulator HT.3MA / AUC, modulator HT.ALLN / AUC HT.ATA / AUC HT.ActD / AUC HT.BHA / AUC HT.BHT / AUC HT.BocD / AUC HT.CHX / AUC HT.Co2+ / AUC HT.DPQ / AUC HT.EGTA / AUC HT.Lmim / AUC HT.NAD+ / AUC HT.Nec-1 / AUC HT.SP600125 / AUC HT.TLCK / AUC HT.U0126: unit not given beside the values; details: for pEC50: Homo sapiens, HT-1080, 48 h, 48 h
# [2] = system: BJeLR, DRD, BJeHLT, and BJeH; test: Viability of four engineered BJ cell lines (HRAS G12V selectivity); type: cell-based, human; details: 48 h
# HT-1080 cells [3] = test: Cell viability assay (Alamar Blue), lethal compounds with or without modulators; type: cell-based
# Method: 1,000 cells per 36 μl were seeded in each well in 384-well plates. Lethal compounds were dissolved, and a twofold, 12-point dilution series was prepared in DMSO. Compound solutions were further diluted with media at 1:25, and 4 μl per well of the diluted solutions was added to cell cultures immediately after cells were seeded. […] When other cell-death-modulating compounds (100 nM sodium selenite, 1 μM cerivastatin, 100 μg/mL mevalonic acid) were used in cotreatments, they were supplemented to cell culture for 24 h before lethal compounds were added to cell culture, after which cells were further incubated for 24 h at 37° C. under 5% CO2. On the day of the viability measurement, we added 10 μl per well of 50% Alamar Blue diluted in media (Life Technologies) and further incubated the cells at 37° C. for 6 h. Fluorescence intensity (excitation/emission: 530/590) was measured with a Victor 3 plate reader (PerkinElmer), and the normalized viability was calculated as VL=(IL−I0)/(IV−I0), where VL, I0, IV, and IL are the normalized viability and the raw fluorescence intensities from the wells containing media, cells treated with a vehicle (negative control), and cells with the lethal compound (L), respectively. When the effect of a chemical modulator (M) on L was calculated, we instead used the equation VL|M=(IM,L−I0)/(IM,V−I0), where VL|M, IM,L and IM,V are the normalized viability, and fluorescence intensity from cells treated with […], respectively. The viability was typically measured in biological triplicate unless otherwise specified. A representative dose-response curve, the mean and standard error of normalized viability from one replicate were plotted. […]
compound,measurement,setting,value
"O=S(=O)(c1ccc2c(c1)C(=NO)c1cc(S(=O)(=O)N3CCCCC3)ccc1-2)N1CCCCC1 [CIL56, 2,7-bis(piperidin-1-ylsulfonyl)-9H-fluoren-9-one oxime]",lipid ROS generation (BODIPY-581/591 C11),HT-1080 cells [1],induced iron-dependent ROS
same,"AUC, modulator BJ.3MA","BJeLR; BJeLR cells, lethal compound cotreated with modulator 3MA, modulatory profile value (AUC)",0.1459
same,"AUC, modulator BJ.ALLN","BJeLR; BJeLR cells, lethal compound cotreated with modulator ALLN, modulatory profile value (AUC)",0.05831
same,"AUC, modulator BJ.Boc D","BJeLR; BJeLR cells, lethal compound cotreated with modulator Boc D, modulatory profile value (AUC)",−0.01043
same,"AUC, modulator BJ.CHX","BJeLR; BJeLR cells, lethal compound cotreated with modulator CHX, modulatory profile value (AUC)",−0.07221
same,"AUC, modulator BJ.Co2+","BJeLR; BJeLR cells, lethal compound cotreated with modulator Co2+, modulatory profile value (AUC)",0.1263
same,"AUC, modulator BJ.DPQ","BJeLR; BJeLR cells, lethal compound cotreated with modulator DPQ, modulatory profile value (AUC)",0.03219
same,"AUC, modulator BJ.Gd3+","BJeLR; BJeLR cells, lethal compound cotreated with modulator Gd3+, modulatory profile value (AUC)",0.004997
same,"AUC, modulator BJ.LNAME","BJeLR; BJeLR cells, lethal compound cotreated with modulator LNAME, modulatory profile value (AUC)",0.005978
same,"AUC, modulator BJ.Lmin/NAD+","BJeLR; BJeLR cells, lethal compound cotreated with modulator Lmin/NAD+, modulatory profile value (AUC)",0.2194
same,"AUC, modulator BJ.Lmin","BJeLR; BJeLR cells, lethal compound cotreated with modulator Lmin, modulatory profile value (AUC)",0.1358
same,"AUC, modulator BJ.NAD+","BJeLR; BJeLR cells, lethal compound cotreated with modulator NAD+, modulatory profile value (AUC)",0.02645
same,"AUC, modulator BJ.NMMA","BJeLR; BJeLR cells, lethal compound cotreated with modulator NMMA, modulatory profile value (AUC)",0.0004905
same,"AUC, modulator BJ.Nec-1","BJeLR; BJeLR cells, lethal compound cotreated with modulator Nec-1, modulatory profile value (AUC)",0.2368
same,"AUC, modulator BJ.Pepstatin","BJeLR; BJeLR cells, lethal compound cotreated with modulator Pepstatin, modulatory profile value (AUC)",0.03545
same,"AUC, modulator BJ.TLCK","BJeLR; BJeLR cells, lethal compound cotreated with modulator TLCK, modulatory profile value (AUC)",0.1986
same,pEC50,BJeLR; DMSO,6.67
same,pEC50,BJeLR; cotreated with Lmim_NAD,5.89
same,pEC50,BJeLR; cotreated with antioxidant Trolox,5.69
same,pEC50,BJeLR; cotreated with antioxidant atoc,5.60
same,pEC50,BJeLR; cotreated with iron-chelator Lmim,6.03
same,AUC HT.ATA,"HT-1080; HT-1080, modulator ATA",−0.01939
same,AUC HT.ActD,"HT-1080; HT-1080, modulator ActD",−0.124
same,AUC HT.BHA,"HT-1080; HT-1080, modulator BHA",0.1774
same,AUC HT.BHT,"HT-1080; HT-1080, modulator BHT",0.0146
same,AUC HT.BocD,"HT-1080; HT-1080, modulator BocD",−0.0127
same,AUC HT.CHX,"HT-1080; HT-1080, modulator CHX",−0.07234
same,AUC HT.Co2+,"HT-1080; HT-1080, modulator Co2+",0.01296
same,AUC HT.CspA,"HT-1080; HT-1080, modulator CspA",0.01564
same,AUC HT.DPQ,"HT-1080; HT-1080, modulator DPQ",0.06245
same,AUC HT.EGTA,"HT-1080; HT-1080, modulator EGTA",0.02378
same,AUC HT.Gd3+,"HT-1080; HT-1080, modulator Gd3+",−0.01542
same,AUC HT.LNAME,"HT-1080; HT-1080, modulator LNAME",0.05375
same,AUC HT.Lmim,"HT-1080; HT-1080, modulator Lmim",0.1017
same,AUC HT.NAD+,"HT-1080; HT-1080, modulator NAD+",0.02315
same,AUC HT.NMMA,"HT-1080; HT-1080, modulator NMMA",−0.01475
same,HT.atoc (AUC),"HT-1080; HT-1080, modulator atoc",0.2436
same,HT.bCarotene (AUC),"HT-1080; HT-1080, modulator bCarotene",0.05423
same,HT.deferox (AUC),"HT-1080; HT-1080, modulator deferox",0.1269
same,HT.digoxin (AUC),"HT-1080; HT-1080, modulator digoxin",−0.1402
same,HT.trolox (AUC),"HT-1080; HT-1080, modulator trolox",0.1421
same,HT.zVAD (AUC),"HT-1080; HT-1080, modulator zVAD",0.03666
same,effect of ferroptosis inhibitors (iron chelators and lipophilic antioxidants) on lethality in modulatory profiling,HT-1080; HT-1080 and BJeLR,suppression by canonical ferroptosis inhibitors
same,pEC50,"HT-1080; HT-1080, DMSO",6.35
same,pEC50,"HT-1080; HT-1080, cotreated with MEK inh U0126",5.55
same,pEC50,"HT-1080; HT-1080, cotreated with antioxidant Atoc",5.60
same,pEC50,"HT-1080; HT-1080, cotreated with antioxidant BHA",5.58
same,pEC50,"HT-1080; HT-1080, cotreated with antioxidant BHT",5.77
same,pEC50,"HT-1080; HT-1080, cotreated with antioxidant Trolox",5.88
same,pEC50,"HT-1080; HT-1080, cotreated with iron-chelator Deferoxamine",5.87
same,pEC50,"HT-1080; HT-1080, cotreated with iron-chelator Lmim",5.82
same,oncogenic RAS selectivity in the BJ engineered cell line series,[2],retained some degree of selectivity toward oncogenic-RAS-expressing cells
same,"effect of ferroptosis inhibitors (α-tocopherol, deferoxamine) on lethality","HT-1080 cells [3]; HT-1080 cells, cotreatment",suppressed the lethality of low concentrations
same,suppression of lethality by antioxidants and iron chelators,HT-1080 cells [3]; ferroptosis-sensitive HT-1080 cells,up to 10 fold

# Source: patent US10947188B2, “Small molecule ferroptosis inducers” (THE TRUSTEES OF COLUMBIA UNIVERSITY IN THE CITY OF NEW YORK, priority 2016, dated 2021)
